# Data from patent publication US20250229006A1, “3D PRINTED ARTIFICIAL BILE DUCTS AND MANUFACTURING METHOD THEREOF” (IUCF-HYU (INDUSTRY-UNIVERSITY COOPERATION FOUNDATION …, priority 2024, published 2025).
# “Also recorded” adds a separate entry of the source.
# Tests used:
# [1] = Evaluation of bile stones dissolution capacity; settings: 0.5% UDCA, 37° C. with constant movement, 120 hours, bile stone weights measured every 24 hours; compared with water, EDTA, MTBE, Paclitaxel, Gemcitabine
# Description: Pigment bile stones were stored in water, 1% ethylenediaminetetraacetic acid (EDTA), 0.5% ursodeoxycholic acid (UDCA), 99% methyl tert-butyl ether (MTBE), 20 μg/ml of Paclitaxel, and 200 uM of Gemcitabine, observed for 120 hours at 37° C. with constant movement, and the weights of the bile stones were measured every 24 hours to evaluate bile stone dissolution capacity (FIG. 1).
# [2] = test system: human chemically derived hepatic progenitors (hCdHs); experiment: Differentiation of hCdHs into cholangiocytes (hCdH-Chols) on ABD; format: cell-based
# Excerpt: In manufacturing a 3D artificial bile duct disclosed in the present specification, cholangiocytes (hCdH-Chols) derived from human chemically derived hepatic progenitors (hCdHs) were used. Because primary cholangiocytes from humans and other mammals are difficult to isolate and propagate in vitro, human chemically derived hepatic progenitors (hCdHs) were utilized for biliary epithelium modeling. To generate hCdHs, human adult hepatocytes isolated from healthy donor livers were directly reprogrammed into bi-potent progenitors through combinatorial treatment with two small molecules, A83-01 and CHIR99021, in the presence of a hepatocyte growth factor (HGF) as described in a recent publication (Y. Kim, K. Kang, S. B. Lee, D. Seo, S. Yoon, […]. Jang, Y. K. Jung, K. G. Lee, V. M. Factor, J. Jeong, D. Choi, J Hepatol 2019, 70, 97.). A cholangiocyte differentiation protocol was applied when hCdHs reached a passage 3. The hCdHs cultured for 14 days in a cholangiocyte differentiation medium comprising Na-taurocholate (100 uM) and CHIR99021 ([…]) in the presence of a HGF for hCdH-Chols differentiation. The ABDs comprising the inner fibrous layer electrospun using 21 G and 27 G needles by the method of Example 2 were treated with UDCA, and after 50 days, whether differentiation into cholangiocytes using human chemically derived hepatic progenitors (hCdHs) is promoted was evaluated. As a control group, a 3D ABD untreated with UDCA was compared.
smiles,measurement,setting,value
"C[C@H](CCC(=O)O)[C@H]1CC[C@H]2[C@@H]3[C@@H](O)C[C@@H]4C[C@H](O)CC[C@]4(C)[C@H]3CC[C@]12C [UDCA, ursodeoxycholic acid]",bile stone dissolution capacity,[1],dissolved the most; also recorded: significantly increased compared to other solvents
same,differentiation of hepatic progenitors (hCdHs) into cholangiocytes (hCdH-Chols),"[2]; ABD treated with UDCA, after 50 days, vs 3D ABD untreated with UDCA",promoted differentiation
same,attachment of cells to the bile ducts by nanofibers of the inner fibrous layer,[2]; UDCA present in inner fibrous layer of ABD vs 3D ABD untreated with UDCA,better attached cells to the bile ducts
same,expression of cholangiocyte markers in hCdH-Chols,[2]; after a period of differentiation,high levels
